Experimental data reported in PMC5784132, “Investigation of 20S-hydroxyvitamin D3 analogs and their 1α-OH derivatives as potent vitamin D receptor agonists with anti-inflammatory activities” (Scientific Reports, 2018).

What was measured:
[1] = low dose of 0.1 µg/kg; cited from earlier work
[2] = test system: IFNγ production; experiment: IFNγ inhibition assay in anti-CD3 activated splenocytes; conditions: for activity at 0.1 µM: Mus musculus, Splenocyte, 72 h, read-out: IFNγ (ratio ± SD)
[3] = test system: CYP24A1 gene expression; experiment: RT-PCR analysis of CYP24A1 expression in HaCaT cells; type: cell-based; conditions: 100 nM, 24 h treatment; for fold induction at 0.1 µM: Homo sapiens, read-out: relative mRNA level for CYP24A1 versus vehicle control
Procedure: Figure 7 20S(OH)D3 analogs upregulate the expression of CYP24A1 encoding the vitamin D catabolic enzyme, CYP24A1, with varying efficiencies. […] The mRNA was isolated and the RT-PCR was performed using specific primers for the CYP24A1 gene (see Methods). Data are presented as mean ± SE (n = 3). *p < 0.05, **p < 0.01 and ***p < 0.001 compared with the control.
HaCaT cells were purchased from Thermo Fisher Scientific (Waltham, MA, USA) and were cultured as for the VDRE reporter assay. The RNA from HaCaT keratinocytes treated with secosteroids or from DMSO controls was isolated using the Absolutely RNA Miniprep Kit (Stratagene, La Jolla, CA, USA). Reverse transcription (100 ng RNA/reaction) was performed with the Transcriptor First Strand cDNA Synthesis Kit (Roche Inc., Mannheim, Germany). Real-time PCR was performed using cDNA diluted 10-fold in sterile water and a SYBR Green PCR Master Mix. The primers for both forward and reverse strands for CYP24A1 were designed based on the mouse and rat sequences using Primer Quest software ([…], San Jose, CA, USA). Reactions (in triplicate) were performed at 50 °C for 2 min, 95 °C for 10 min and then 40 cycles of 95 °C for 15 s, 60 °C for 30 s and 72 °C for 30 s. Data were collected and analyzed on a Roche Light Cycler 480. The amount of the final amplified product for each gene was compared and normalized to the amount of β-actin product as a housekeeping gene using a comparative Ct method.

[4] = target: T1, VDR (Homo sapiens, UniProt P11473); experiment: VDRE-luciferase reporter assay in HaCaT cells
T1 sequence (P11473 1-427): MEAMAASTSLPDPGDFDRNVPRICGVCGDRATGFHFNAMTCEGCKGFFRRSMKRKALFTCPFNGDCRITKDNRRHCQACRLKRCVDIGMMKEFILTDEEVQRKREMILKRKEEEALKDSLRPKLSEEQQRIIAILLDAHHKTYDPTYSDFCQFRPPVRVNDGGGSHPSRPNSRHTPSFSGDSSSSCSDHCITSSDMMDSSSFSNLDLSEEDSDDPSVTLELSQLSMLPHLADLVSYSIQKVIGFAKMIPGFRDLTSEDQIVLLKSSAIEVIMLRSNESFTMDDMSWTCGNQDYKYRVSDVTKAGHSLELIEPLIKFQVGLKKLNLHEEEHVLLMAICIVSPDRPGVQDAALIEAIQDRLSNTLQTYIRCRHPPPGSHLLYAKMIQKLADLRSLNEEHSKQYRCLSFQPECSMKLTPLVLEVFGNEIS

[5] = target: T1, VDR; experiment: VDRE-luciferase reporter assay in Caco-2 cells
[6] = target: T1, VDR; experiment: VDRE-luciferase reporter assay in Jurkat cells
[7] = target: T2, mouse CYP27B1 (Mus musculus, UniProt O35084); experiment: Metabolism (1α-hydroxylation) of analogs by mouse CYP27B1; type: in vitro ADME; conditions: 0.018 mol/mol phospholipid, 0.8 µM mouse CYP27B1, 20 min, 37 °C
T2 construct: made in house; host or cells: E. coli
T2 sequence (O35084 1-507): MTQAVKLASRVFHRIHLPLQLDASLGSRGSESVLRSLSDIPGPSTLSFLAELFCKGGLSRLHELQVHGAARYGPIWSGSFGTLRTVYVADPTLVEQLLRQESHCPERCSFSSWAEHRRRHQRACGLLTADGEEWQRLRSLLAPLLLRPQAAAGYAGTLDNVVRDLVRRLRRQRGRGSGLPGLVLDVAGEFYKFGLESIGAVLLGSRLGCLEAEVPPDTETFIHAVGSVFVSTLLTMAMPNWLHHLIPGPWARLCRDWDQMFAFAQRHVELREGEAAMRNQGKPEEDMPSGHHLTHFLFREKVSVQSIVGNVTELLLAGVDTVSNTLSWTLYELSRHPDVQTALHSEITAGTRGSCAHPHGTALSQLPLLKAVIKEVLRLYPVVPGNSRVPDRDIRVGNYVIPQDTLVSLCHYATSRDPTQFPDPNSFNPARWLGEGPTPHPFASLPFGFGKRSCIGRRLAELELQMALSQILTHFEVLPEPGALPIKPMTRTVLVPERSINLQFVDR
Procedure: In order to make the 1α-OH derivatives of the 20S(OH)D3 analogs enzymatically, and to assess their likely capacity to be 1α-hydroxylated in vivo, the ability of mouse CYP27B1 to hydroxylate these metabolites was examined. 25(OH)D3, the major natural substrate for CYP27B1[2],[30], was included for comparison. The 20S(OH)D3 analogs were incorporated into phospholipid vesicles and incubated with CYP27B1, then the extent of their metabolism was determined by HPLC (Table 2). All analogs tested except 33 were metabolized by CYP27B1. In each case only a single metabolite was produced, assumed to be the 1α-OH derivative based on the known high specificity of the enzyme for the 1α-position[24],[30],[31]. […] Metabolism of 4 was almost twice that of 20S(OH)D3 and metabolism of 23 almost three fold. Thus, the modifications to C24 and/or C25 seen in 13, 4 and 23 enhanced their ability to be metabolized by CYP27B1. […] In contrast, the introduction of an amide linkage into the side chain, as in 33, prevented its hydroxylation by CYP27B1.
Rat CYP24A1, mouse CYP27B1 and adrenodoxin and human adrenodoxin reductase were expressed in E. coli and purified as described before[28],[30],[35]. To test metabolism of each analog, they were incorporated into phospholipid vesicles made from dioleoyl phosphatidylcholine and cardiolipin by sonication, as before[24],[28]. The substrates in vesicles (510 µM phospholipid) were incubated at 37 °C with either CYP24A1 (0.14 µM) or CYP27B1 (0.8 µM) in a reconstituted system containing adrenodoxin (15 µM) and adrenodoxin reductase (0.4 µM). Samples from incubations with CYP24A1 were extracted with dichloromethane and analysed by HPLC using a 25 cm Grace Alltima C18 column, as before[27],[28]. Products (except 33) were separated using an acetonitrile on water gradient (45% to 100% for 20 min then 100% acetonitrile for 40 min at a flow rate of 0.5 mL/min). For the more polar 33, the acetonitrile gradient was 30% to 100% acetonitrile for 30 min then 100% acetonitrile for 20 min, at 0.5 mL/min. Products from incubations with CYP27B1 were similarly extracted with dichloromethane and analyzed by reverse phase HPLC using a 15 cm Grace Smart C18 column and an acetonitrile in water gradient (10 min 45% to 100% acetonitrile then 20 min at 100% acetonitrile, at 0.5 mL/min).

[8] = target: T3, rat CYP24A1 (Rattus norvegicus, UniProt Q09128); experiment: Kinetics of metabolism of analogs in phospholipid vesicles by rat CYP24A1; type: in vitro ADME; conditions: for Km: rat CYP24A1 0.14 µM, phospholipid vesicles, 1 min incubation, ± SE from curve fit
T3 construct: made in house; host or cells: E. coli
T3 sequence (Q09128 36-514): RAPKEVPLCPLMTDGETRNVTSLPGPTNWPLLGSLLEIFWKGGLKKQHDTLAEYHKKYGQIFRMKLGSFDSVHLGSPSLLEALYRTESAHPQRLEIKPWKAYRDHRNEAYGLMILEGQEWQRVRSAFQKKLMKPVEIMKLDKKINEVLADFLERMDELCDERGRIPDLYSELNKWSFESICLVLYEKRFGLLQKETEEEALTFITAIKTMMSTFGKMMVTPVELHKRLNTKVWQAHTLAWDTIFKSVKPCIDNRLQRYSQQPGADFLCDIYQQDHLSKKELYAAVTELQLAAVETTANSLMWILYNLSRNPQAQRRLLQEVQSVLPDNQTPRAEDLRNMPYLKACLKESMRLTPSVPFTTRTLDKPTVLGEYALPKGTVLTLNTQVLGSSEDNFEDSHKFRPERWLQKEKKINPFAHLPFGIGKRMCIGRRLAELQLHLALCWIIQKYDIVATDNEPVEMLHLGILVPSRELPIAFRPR
Procedure: An incubation time of 1 min was chosen to obtain the initial rate based on the time courses (Fig. 6) and previous studies[28],[29].
To test metabolism of each analog, they were incorporated into phospholipid vesicles made from dioleoyl phosphatidylcholine and cardiolipin by sonication, as before[24],[28]. […] Samples from incubations with CYP24A1 were extracted with dichloromethane and analysed by HPLC using a 25 cm Grace Alltima C18 column, as before[27],[28]. […] For the more polar 33, the acetonitrile gradient was 30% to 100% acetonitrile for 30 min then 100% acetonitrile for 20 min, at 0.5 mL/min.

| SMILES | Product (% total secosteroids) [7] [% total secosteroids] | fold induction at 0.1 µM [3] | EC50 [4] [nM] | Km [8] [mmol/mol PL] | EC50 [5] [nM] | activity at 0.1 µM [2] [%] | EC50 [6] [nM] | further results |
| --- | --- | --- | --- | --- | --- | --- | --- | --- |
| C=C1/C(=C\C=C2/CCC[C@]3(C)[C@@H]([C@H](C)CCCC(C)(C)O)CC[C@@H]23)C[C@@H](O)C[C@@H]1O [1,25(OH)2D3, 1α,25-dihydroxyvitamin D3, reference compound] | – | – | – | – | – | – | – | calcemic effect [1]: substantial calcemic effect; decrease of IFNγ production level ([2]; 100 nM): 60% |
| C=C1/C(=C\C=C2/CCC[C@]3(C)[C@@H]([C@H](C)OCCC(C)(C)O)CC[C@@H]23)C[C@@H](O)C[C@@H]1O [22-Oxa, reference compound] | – | – | – | – | – | – | – | relative mRNA level for CYP24A1 versus vehicle control [3]: 77.5 fold; EC50 ([4]; read-out: VDRE stimulation (EC50 ± SD, nM) HaCaT, HaCaT cells, 24 h, NS: no significance): 40.1 ± 1.5 nM; EC50 ([5]; read-out: VDRE stimulation (EC50 ± SD, nM) Caco-2, Caco-2 cells, 24 h, NS: no significance): 42.5 ± 1.6 nM; decrease of IFNγ production level ([2]; 100 nM): 51%; IFNγ (ratio ± SD) ([2]; ratio to control (1.000), 100 nM, mouse splenocytes, anti-CD3, 72 h): 0.487 ± 0.017; EC50 ([6]; read-out: VDRE stimulation (EC50 ± SD, nM) Jurkat, Jurkat cells, 24 h, NS: no significance): 2.9 ± 0.3 nM |
| C=C1CC[C@H](O)C/C1=C/C=C1\CCC[C@]2(C)[C@@H]([C@H](C)CCCC(C)(C)O)CC[C@@H]12 [25(OH)D3, 25-hydroxyvitamin D3, reference compound] | 86.0 | – | – | – | – | – | – | – |
| C=C1CC[C@H](O)C/C1=C/C=C1\CCC[C@@]2(C)[C@H]1CC[C@@H]2[C@@](C)(O)CCC=C(C)C [compound 4] | 40.6 | 32.4 | 460 ± 36.5 | 2.0 ± 1.7 | 580 ± 19.2 | 83.2 ± 2.3 | 439 ± 25.7 | kcat, fold lower than for 1,25(OH)2D3 ([8]; rat CYP24A1): approximately 4 fold |
| C=C1/C(=C\C=C2/CCC[C@@]3(C)[C@H]2CC[C@@H]3[C@@](C)(O)CCC=C(C)C)C[C@@H](O)C[C@@H]1O [compound 5] | – | 149 | 198 ± 8.1 | – | 182 ± 6.1 | 38.1 ± 1.7 | 237 ± 5.5 | – |
| C=C1/C(=C\C=C2/CCC[C@@]3(C)[C@H]2CC[C@@H]3[C@@](C)(O)CCOC(C)C)C[C@@H](O)C[C@@H]1O [compound 14] | – | 2 | 226 ± 3.5 | – | 188 ± 1.9 | 62.8 ± 0.8 | 248 ± 5 | – |
| C=C1CC[C@H](O)C/C1=C/C=C1\CCC[C@@]2(C)[C@H]1CC[C@@H]2[C@@](C)(O)CCC(F)(F)C(C)C [compound 23] | 57.1 | 0.9 | – | 11.6 ± 3.1 | – | 69.8 ± 3.1 | – | Km, fold lower than that for 20S(OH)D3 ([8]; rat CYP24A1): 3–4 fold |
| C=C1/C(=C\C=C2/CCC[C@@]3(C)[C@H]2CC[C@@H]3[C@@](C)(O)CCC(F)(F)C(C)C)C[C@@H](O)C[C@@H]1O [compound 24] | – | 2.3 | 254 ± 7.9 | – | 236 ± 4.1 | 56 ± 1 | 305 ± 4.5 | – |
| C=C1CC[C@H](O)C/C1=C/C=C1\CCC[C@]2(C)[C@@H](C(C)(O)CC(=O)NC(C)C)CC[C@@H]12 (stereo partly shown) [compound 33] | 0 | 1.2 | – | 15.4 ± 1.7 | – | 62.8 ± 1.4 | – | catalytic efficiency, fold lower than for 13 ([8]; rat CYP24A1): 13 fold; kcat, fold lower than for 1,25(OH)2D3 ([8]; rat CYP24A1): approximately 4 fold |
